ChEMBL document CHEMBL1125979, “Phosphinic acid inhibitors of 3-hydroxy-3-methylglutaryl-coenzyme a reductase” (Bioorg Med Chem Lett, 1991)

Tests used:
[1] = target: T1, 3-hydroxy-3-methylglutaryl-coenzyme A reductase (Homo sapiens, UniProt P04035); assay: The inhibitory activity against purified recombinant human HMG-CoA reductase was evaluated
T1 sequence (P04035 whole entry): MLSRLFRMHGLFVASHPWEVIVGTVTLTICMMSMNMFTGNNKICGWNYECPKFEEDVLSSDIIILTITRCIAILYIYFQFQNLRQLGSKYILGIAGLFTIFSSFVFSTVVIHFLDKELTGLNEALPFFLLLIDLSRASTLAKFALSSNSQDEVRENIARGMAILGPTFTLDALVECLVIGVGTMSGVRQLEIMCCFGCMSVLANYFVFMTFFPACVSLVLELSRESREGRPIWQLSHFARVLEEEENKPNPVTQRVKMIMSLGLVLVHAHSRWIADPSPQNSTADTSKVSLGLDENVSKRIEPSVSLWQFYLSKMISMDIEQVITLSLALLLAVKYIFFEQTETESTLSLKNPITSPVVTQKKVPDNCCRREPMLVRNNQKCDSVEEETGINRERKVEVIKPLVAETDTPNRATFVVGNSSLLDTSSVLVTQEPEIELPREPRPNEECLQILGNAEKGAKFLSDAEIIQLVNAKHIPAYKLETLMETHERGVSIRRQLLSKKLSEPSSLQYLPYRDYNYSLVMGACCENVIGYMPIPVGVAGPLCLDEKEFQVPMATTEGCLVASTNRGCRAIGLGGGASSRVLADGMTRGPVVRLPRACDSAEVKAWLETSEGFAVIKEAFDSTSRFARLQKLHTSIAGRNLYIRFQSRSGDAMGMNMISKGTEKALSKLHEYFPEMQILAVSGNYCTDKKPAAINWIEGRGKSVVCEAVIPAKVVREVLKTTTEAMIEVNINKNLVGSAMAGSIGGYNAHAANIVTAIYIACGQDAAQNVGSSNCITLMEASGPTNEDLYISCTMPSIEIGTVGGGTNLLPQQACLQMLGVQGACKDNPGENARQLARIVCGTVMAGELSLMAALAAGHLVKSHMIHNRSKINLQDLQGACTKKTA

HepG2 [2] = assay: The compound was tested for inhibition of cholesterol biosynthesis in human hepatoma G2 cell line; showed relatively low potency; assay type: functional, cell-based
HepG2 [3] = assay: The compound was tested for inhibition of cholesterol biosynthesis in human hepatoma G2 cell line; assay type: functional, cell-based

SMILES: O=C(O)C[C@H](O)C[C@H](O)CCc1c(Cl)cc(Cl)cc1OCc1ccccc1
- Ki [1]: 3 nM

SMILES: O=C(O)C[C@H](O)CP(=O)(O)CCc1c(Cl)cc(Cl)cc1OCc1ccccc1
- Ki [1]: 16 nM
- IC50 (HepG2 [2]): > 1000 nM

SMILES: CC(C)(C)C(=O)OCOC(=O)CC(O)CP(=O)(CCc1c(Cl)cc(Cl)cc1OCc1ccccc1)OCOC(=O)C(C)(C)C (stereo not given)
- IC50 (HepG2 [3]): 100 nM

SMILES: COC(=O)CC(O)CP(=O)(O)CCc1c(Cl)cc(Cl)cc1OCc1ccccc1 (stereo not given)
- IC50 (HepG2 [3]): 100 nM
